We go through five molecules from ChEMBL document CHEMBL1128783, “N-Methyl and N-cyclopropylmethyl-14,14-[dithiobis[(2-oxo-2,1-ethanediyl)imino]]bis(7,8-dihydro-5-methyl-morphinone) MET-TAMO and N-CPM-MET-TAMO: Synthesis and opioid binding properties” (Bioorg Med Chem Lett, 1995).

Test [1] deals with Mu-type opioid receptor (Bos taurus) (UniProt P79350). The test is described as follows: Effect at dose 40 nM on wash-resistant inhibition of [3H]DAMGO binding to TPCK-treated membranes. Further details: scale not given: the % may be the effect or the level left.
Test [2] can be described thus: Inhibitory activity against Opioid receptor kappa1 binding to bovine striatal membrane.
The nature of test [3]: Inhibitory activity against Opioid receptor delta 1 binding to bovine striatal membrane.
For test [4], the target named is T1, Mu-type opioid receptor (Bos taurus, UniProt P79350). The experiment in a line: Inhibitory activity against Opioid receptor mu 1 binding to bovine striatal membrane. The arrangement: species or system Striatum.
The target of test [5] is T1, Mu-type opioid receptor. The experiment in a line: Binding affinity towards Opioid receptor mu 1 using [3H]DAMGO expressed as Kd.

T1 sequence (P79350 whole entry): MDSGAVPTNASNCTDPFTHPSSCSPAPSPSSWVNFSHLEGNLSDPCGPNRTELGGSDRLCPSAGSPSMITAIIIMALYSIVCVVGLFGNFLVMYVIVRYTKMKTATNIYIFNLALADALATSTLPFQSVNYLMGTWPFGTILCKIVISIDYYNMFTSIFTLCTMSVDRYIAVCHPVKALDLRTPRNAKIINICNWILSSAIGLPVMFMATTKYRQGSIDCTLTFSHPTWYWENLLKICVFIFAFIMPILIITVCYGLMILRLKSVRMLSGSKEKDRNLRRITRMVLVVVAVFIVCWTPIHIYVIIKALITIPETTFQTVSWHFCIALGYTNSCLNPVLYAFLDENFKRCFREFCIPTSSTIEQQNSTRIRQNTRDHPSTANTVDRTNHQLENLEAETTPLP
Chain of Mu-type opioid receptor (Bos taurus) (P79350 whole entry): as above

Molecule `OC(CS)C(O)CS` (centres undefined) came in with a Control in test [1] of 107%. Turning to `CN1CC[C@]23c4c5ccc(O)c4O[C@H]2C(=O)CC[C@@]3(NC(=O)CSSCC(=O)N[C@@]23CCC(=O)[C@@H]4Oc6c(O)ccc7c6[C@@]42CCN(C)[C@@H]3C7)[C@H]1C5`, the figures for the IC50 in test [2] and in test [3] were 41 nM and 11 nM, respectively. Consider `C[C@@]12Oc3c(O)ccc4c3[C@@]13CCN(CC1CC1)[C@H](C4)[C@]3(NC(=O)CSSCC(=O)N[C@@]13CCC(=O)[C@]4(C)Oc5c(O)ccc6c5[C@@]41CCN(CC1CC1)[C@@H]3C6)CCC2=O`, for which the IC50 (as a rule, the concentration needed to halve the response being measured) on Mu-type opioid receptor [4] was determined as 1.4 nM. Moreover, the Kd – broadly, the free concentration of one partner at which half of the binding sites on the other are occupied at equilibrium, for simple one-to-one binding – at Mu-type opioid receptor [5] was 0.4 nM. As to `O=C(CSSCC(=O)N[C@@]12CCC(=O)[C@@H]3Oc4c(O)ccc5c4[C@@]31CCN(CC1CC1)[C@@H]2C5)N[C@@]12CCC(=O)[C@@H]3Oc4c(O)ccc5c4[C@@]31CCN(CC1CC1)[C@@H]2C5`, the results for the IC50 (on Mu-type opioid receptor [4]; in test [2]; in test [3]) were 3.9 nM, 10 nM and 24 nM, respectively.

On to `CN1CC[C@]23c4c5ccc(O)c4O[C@@]2(C)C(=O)CC[C@@]3(NC(=O)CSSCC(=O)N[C@@]23CCC(=O)[C@]4(C)Oc6c(O)ccc7c6[C@@]42CCN(C)C3C7)C1C5`, for which the IC50 on Mu-type opioid receptor [4] was determined as 2.9 nM.
